# Source: ChEMBL document CHEMBL5604063, “ASAP - DENV-2 NS2B-NS3 protease fluorescence dose response” (2024)
# pIC50: −log10 of the molar value. Several values for one entry are separate records, joined by “and”; a condition that tells them apart may be missing. Identical values can stand only once.
# Columns and labels:
# [1] = target: T1, Genome polyprotein (dengue virus type 2, UniProt P29990); format: functional, Thailand/16681/1984
# [2] = target: T1, Genome polyprotein; format: functional, Thailand/16681/1984; remark: listed apart in the source
# T1 sequence (P29990 1346-1475 limits assumed): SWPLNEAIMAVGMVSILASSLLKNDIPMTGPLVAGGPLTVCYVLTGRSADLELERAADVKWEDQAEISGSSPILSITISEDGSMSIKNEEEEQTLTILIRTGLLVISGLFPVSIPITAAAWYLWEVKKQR
# T1 sequence (P29990 1476-2093 limits assumed): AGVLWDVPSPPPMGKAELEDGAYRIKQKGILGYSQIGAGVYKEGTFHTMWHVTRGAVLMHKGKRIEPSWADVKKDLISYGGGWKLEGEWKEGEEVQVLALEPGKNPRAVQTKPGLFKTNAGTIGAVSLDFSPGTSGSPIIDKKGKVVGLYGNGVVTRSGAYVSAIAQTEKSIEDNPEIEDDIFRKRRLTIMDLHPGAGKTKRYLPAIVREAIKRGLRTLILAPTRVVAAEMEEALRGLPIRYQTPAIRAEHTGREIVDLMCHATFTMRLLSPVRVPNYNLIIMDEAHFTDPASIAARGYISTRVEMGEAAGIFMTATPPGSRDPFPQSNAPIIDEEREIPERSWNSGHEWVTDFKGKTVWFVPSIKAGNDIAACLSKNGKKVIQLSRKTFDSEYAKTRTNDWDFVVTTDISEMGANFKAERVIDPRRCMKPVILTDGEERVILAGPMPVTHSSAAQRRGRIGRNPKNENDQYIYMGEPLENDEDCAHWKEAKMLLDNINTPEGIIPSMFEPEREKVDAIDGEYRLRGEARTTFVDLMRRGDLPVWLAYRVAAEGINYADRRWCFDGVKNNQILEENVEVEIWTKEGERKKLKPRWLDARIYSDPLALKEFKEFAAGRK
Structure (SMILES),IC50 [1],IC50 [2],pIC50 [1],pIC50 [2]
N=C(N)NCCC[C@H](NC(=O)c1nccs1)C(=O)N[C@@H](CCCCN)C(=O)N[C@@H](C(N)=O)c1ccc(OCc2ccc(C(F)(F)F)cc2)cc1,1.46 µM and 1.87 µM and 1.17 µM and 2.77 µM and 3.21 µM and 2.73 µM and 3 µM and 2.69 µM and 2.58 µM and 2.57 µM (2×) and 2.84 µM (2×) and 3.15 µM and 3.2 µM and 2.52 µM (2×) and 2.33 µM and 2.17 µM and 2.34 µM and 2.39 µM and 2.31 µM and 2.49 µM and 2.93 µM and 2.95 µM and 2.64 µM and 3.09 µM and 2.26 µM and 2.59 µM and 2.92 µM and 2.68 µM and 2.2 µM and 2.3 µM and 2.12 µM and 1.71 µM and 1.91 µM and 1.72 µM and 2.55 µM and 2.1 µM,,,
N=C(N)NCCC[C@H](NC(=O)[C@H](Cc1ccc(CN)cc1)NC(=O)c1ccccc1)B(O)O,305 nM and 257 nM and 222 nM and 304 nM and 397 nM and 347 nM and 311 nM and 370 nM and 386 nM and 288 nM and 401 nM (2×) and 387 nM and 378 nM and 379 nM and 356 nM and 445 nM and 309 nM and 358 nM (2×) and 321 nM and 398 nM and 512 nM and 367 nM and 298 nM and 273 nM and 243 nM and 437 nM and 458 nM and 503 nM and 302 nM and 267 nM and 516 nM and 409 nM and 384 nM and 328 nM and 540 nM and 421 nM,720 nM and 583 nM and 818 nM and 732 nM and 585 nM and < 2.49 µM (9×) and 276 nM and 270 nM and 274 nM and 310 nM and 236 nM and 572 nM and 397 nM and 474 nM and 507 nM and 265 nM,,
Nc1cc(Cl)cc(C(=O)Nc2ccc3c(c2)CNC3)c1N,,,< 4.00,
Cc1c(C(=O)Nc2cccc(-c3nnn[nH]3)c2)sc2ccccc12,,,4.12,
Cc1ccncc1-c1cc(CN)cc([C@@H]2C[C@H]2c2cc(Cl)cc(NC(=O)OCc3ccccc3)c2)c1,,,< 4.00,
O=C(Nc1cc(Cl)cc(C(=O)Nc2ccc3c(c2)CNC3)c1)OCc1ccccc1,,,< 4.00,< 4.00
O=C(Nc1ccc2c(c1)CNC2)c1cc(Br)cc2[nH]c(Cc3ccccc3)nc12,,,< 4.00 and 4.27,
O=C(O)c1cc(Cc2c[nH]c3ccc(Cl)cc23)cc(C2CC2)n1,,,< 4.00,
N#C[C@H](Nc1ccc2c(c1)CNC2)c1n[nH]c2cc(C(F)(F)F)ccc12,,,< 4.00,
N[C@H]1CCc2cc(NC(=O)c3cc(Cl)cc4[nH]ncc34)ccc21,,,4.23,
CC(C)c1nc2c(C(=O)Nc3ccc4c(c3)CNC4)cc(Br)cc2[nH]1,,,< 4.00,
N#Cc1cccc(-c2nc3c(C(=O)Nc4cccnc4)cc(Cl)cc3[nH]2)c1,,,< 4.00,
N#Cc1cccc(-c2nc3c(C(=O)Nc4ccncc4)cc(Cl)cc3[nH]2)c1,,,< 4.00,
N#Cc1cccc(-c2nc3c(C(=O)Nc4ccccc4)cc(Cl)cc3[nH]2)c1,,,< 4.00,
N#Cc1cccc(-c2nc3c(C(=O)NCc4ccccc4)cc(Cl)cc3[nH]2)c1,,,< 4.00,
Cc1c(C(=O)Nc2cc(C(=O)N3CCn4nccc43)ccn2)cc(C2CC2)n1C,,,< 4.00,
NCc1cccc([C@@H]2C[C@H]2c2cc(Cl)cc(NC(=O)OCc3ccccc3)c2)c1,,,< 4.00,4.52 and 4.30
CC(C)CNC(=O)c1cc(Cl)cc2[nH]c(-c3cccc(C#N)c3)nc12,,,< 4.00,
FC(F)(F)Oc1cc(Cl)cc2c(CN3CCC(c4cscn4)CC3)c[nH]c12,,,< 4.00,< 4.00
Cc1ncc(C(=O)Nc2cccc(CN)c2)cc1NC(=O)OCc1ccccc1,,,< 4.00,< 4.00

Structure (SMILES),IC50 [1],IC50 [2],pIC50 [1],pIC50 [2]
NCc1cccc(NC(=O)[C@@H](NC(=O)OCc2ccccc2)c2ccc(OCc3ccccc3)cc2)c1,,,4.51 and 4.52 and 4.38 and 4.49 and 4.56 and 4.48 and 4.53 and 4.72 and 4.54,4.85
NCc1cccc(NC(=O)C[C@H](NC(=O)OCc2ccccc2)c2ccc(OCc3ccccc3)c(Br)c2)c1,,,5.06 and 5.17 and 5.39 and 5.00 and 5.34 and 5.44,> 5.60 and 5.73 and 5.72 and 5.60 and 5.57 and 5.58
CCOCC(=O)N1CCC([C@H](NC(=O)OCc2ccccc2)C(=O)Nc2cccc(CN)c2)CC1,,,< 4.00,< 4.00
O=C1COc2c(cccc2N2CCN(Cc3c[nH]c4ccccc34)CC2)N1,,,< 4.00,< 4.00
O=C(Nc1cc(Cl)cc(C(=O)Nc2ncc(C3CNC3)s2)c1)OCc1ccccc1,,,< 4.00,
NCc1cccc(NC(=O)c2cc(NC(=O)OCc3ccccc3)cc(C(N)=O)c2)c1,,,< 4.00,< 4.00
NCCCc1ccccc1NC(=O)c1cc(Cl)cc(NC(=O)OCc2ccccc2)c1,,,< 4.00,< 4.00
COc1ccccc1-c1nc2c(C(=O)Nc3ccc4c(c3)CNC4)cc(F)cc2[nH]1,,,< 4.00,
NCc1nc(CNC(=O)c2cc(Cl)cc(NC(=O)OCc3ccccc3)c2)cs1,,,< 4.00,< 4.00
NCc1cccc(CS(=O)(=O)c2cc(Cl)cc(NC(=O)OCc3ccccc3)c2)c1,,,< 4.00,< 4.00
Cc1nccn1CCOc1cccc([C@H](NC(=O)OCc2ccccc2)C(=O)Nc2cccc(CN)c2)c1,,,< 4.00,< 4.00
O=C(O)c1cc(Cl)c(F)cc1NS(=O)(=O)c1ccc(Oc2ccccc2Cl)cc1,,,4.95 and 5.08 and 4.78 and 4.99 and 5.04 and 4.91 and 5.28 and 5.24,5.11
NCc1cccc(NC(=O)[C@H](NC(=O)OCc2ccccc2)c2cccc(OCc3ccncc3)c2)c1,,,< 4.00,< 4.00
CC[C@H](CO)NC(=O)Cn1ccnc(N2CC[C@H](CO)C2)c1=O,,,< 4.00,
NCc1cccc(NC(=O)c2cccc(CN)c2)c1,,,< 4.00,
NCc1cccc(NC(=O)[C@H](NC(=O)OCc2ccccc2)C2CCN(Cc3ccccc3)CC2)c1,,,< 4.00,< 4.00
CCN1CC[C@H](COc2cccc([C@H](NC(=O)OCc3ccccc3)C(=O)Nc3cccc(CN)c3)c2)C1,,,< 4.00,< 4.00
CO[C@H](C)Cn1cc2c(C(=O)Nc3ccc4c(c3)CNC4)cc(Cl)cc2n1,,,< 4.00,
NCc1cccc(NC(=O)c2cc(Cl)cc(F)c2F)c1,,,< 4.00,< 4.00
